Test results reported in ChEMBL document CHEMBL3507680, “University of Dundee, Gates Library screen for HepG2 cell viability”.

Test: Human HepG2 cell viability assay in 384 well format
Assay type: toxicity, cell-based
Parameters: dose 125 nL, time 70.5 hour; concentration not given beside the values
Settings: HepG2 cells, read-out: Inhibition

Structure (SMILES)	cytotoxicity at 70.5 h [%]
Cc1cc(C)n(CC(=O)N2CCC(c3nc(C)no3)CC2)n1	2.07
O=S(=O)(c1cc(F)ccc1F)n1cc(Cl)cn1	-4.29
O=C(C1COc2ccccc2O1)N1Cc2cnn(CCO)c2C1 (centres undefined)	-3.6
Cn1cc(CN2CC[C@@H]3[C@@H](CCC(=O)N3CCc3c[nH]cn3)C2)cn1	-6.69
c1cnn(CCNCc2nnc(C3CC3)o2)c1	48.9
O=C(NCCc1coc(-c2ccc(F)cc2)n1)NC1CC1	-3.96
CN(C)C(=O)[C@H]1C[C@H]2[C@H](CCN2Cc2ccc3c(c2)OCO3)O1	-14.7
CCc1ccccc1OCCN1C[C@@H](NS(C)(=O)=O)[C@H](C(C)C)C1	-5.69
CCn1ccc(NC(=O)CCc2c(C)nn(C)c2C)n1	18.2
O=C1NCC2(CCCN(C(=O)c3c[nH]nc3-c3cccs3)C2)O1 (centres undefined)	-8.3
c1nc2c(c(NC3CCC3)n1)CCNCC2	-2.44
O=C(c1ccc2c(c1)OCO2)N1CCC(Nc2cccnn2)CC1	9.12
OCC1CCCCN1CCCNCc1cc(O)c2cc(F)ccc2n1 (centres undefined)	-4.1
COc1ccc(-c2nnc([C@H]3CCN(CC(C)(C)C)C3)o2)cc1	-1.13
CN(C)C(C(=O)NCC1(Cn2cccn2)CC1)c1ccc(F)cc1 (centres undefined)	3.72
Cc1nc(N)nc(C)c1Cc1nc(C2CC2)n[nH]1	-0.863
O=C(Cn1ccc2ccccc21)N1CCC(Oc2cnccn2)CC1	-7
Cc1cc(C)n(CC(C)CNC(=O)NCc2ccco2)n1 (centres undefined)	-10.4
O=C1CC2(CCN(c3nccc(-c4cc(C(=O)O)ccn4)n3)CC2)CN1	-8.17
O=C(Cc1cnc(-n2cccc2)s1)NCCCO	-25
COc1ccc(CNCc2c(C(C)C)nn(C)c2OC)cn1	-0.773
CCS(=O)(=O)N1CCCCC1c1nc(C)no1 (centres undefined)	-5.51
Cc1nc(CN2CC3(CCN(c4nccs4)C3)CC2=O)cs1 (centres undefined)	-1.92

Structure (SMILES)	cytotoxicity at 70.5 h [%]
CN(C)C1Cc2ccccc2N(S(=O)(=O)c2cccc(C#N)c2)C1 (centres undefined)	-4.2
Cc1cc(C(=O)NCc2cccnc2N2CCCC(O)C2)c(C)o1 (centres undefined)	-8.63
Cc1cccc(CN2CCc3ncnc(N4CCN(C)CC4)c3CC2)n1	-0.603
CNS(=O)(=O)c1ccc(CNC(=O)NCC2CCOC2)cc1 (centres undefined)	-31.2
Cc1cc(C)n(CC2CCCN2C(=O)c2cnn(C)c2C2CC2)n1 (centres undefined)	-11.8
COc1ccc(N2CCN(C(=O)CCCc3cn[nH]c3)CC2=O)cc1	24.3
CC1CCN(C(=O)c2cc(NC(=O)c3ccccc3)n(C)n2)CC1	-14.1
CC(C)(N)c1cn([C@@H]2c3ccccc3C3(CCNCC3)[C@H]2O)nn1	-4.25
Cc1cccnc1CCNC(=O)CC1C(=O)NCCN1CCC(C)C (centres undefined)	19.9
Cn1nc(C2CCN(C(=O)Cc3cccc(F)c3)CC2)c2cccnc21	-6.14
CC(C)c1nnc2ccc(N3CCC(C(N)=O)CC3)nn12	3.97
CC(C)c1nnc2n1CCN(c1nc3ccccc3o1)C2	-10.1
O=C(Nc1ccccc1)N1CCN(Cc2noc(C3CC3)n2)CC1	-7.64
CC(C)[C@H]1COC(=O)N1Cc1nccn1C1CC1	-3.35
CN(C)CCn1c(=O)oc2ccc(NC(=O)c3cc(Cl)c[nH]3)cc21	-2.49
CNC(=O)COc1ccccc1CNCc1c(C)noc1C	-3.67
CC(C)CC(=O)Nc1ccccc1Oc1ccsc1C(=O)O	-2.03
Cc1cc(CN2C[C@H]3CCC[C@@]3(COCC3CCOCC3)C2)no1	0.596
CCc1ccc(NC(=O)Nc2c(O)oc3ccccc3c2=O)cc1	-9.4
COc1ccccc1C(C)N1CCN(S(C)(=O)=O)CC1 (centres undefined)	11.4
CN(CCc1ccccn1)c1cc(N2CCCCC2)ncn1	-6.31
COCCN1CCn2c(nc3cc(C(=O)NC(C)C)ccc32)C1	-6.96
COc1ccc2cc(NC(=O)CCCNc3ncccn3)cnc2c1	-30.3

Structure (SMILES)	cytotoxicity at 70.5 h [%]
O=C(c1cncnc1)N1CCCC(c2nccs2)C1 (centres undefined)	-3.47
NC(=O)Cn1c(CO)cnc1SCC(=O)NCc1ccccc1	13.6
CC(C)CCN(C(=O)c1nc(S(C)(=O)=O)n2ccccc12)C1CC1	-1.14
CCOCCOC(C)C(=O)Nc1nccn1Cc1ccccc1 (centres undefined)	-15
CC1CCc2nc(O)c(C(=O)NCCCN3CCN(C)CC3)cc2C1 (centres undefined)	-7.22
O=C(Nc1cccc(OCC(F)F)n1)c1ccncc1F	-6.41
COC(=O)c1cccn1C1CCN(CC(=O)NC2CCCCC2)CC1	-8.68
Cc1ccc(F)c2c1CCCN2CC(=O)NC1CCS(=O)(=O)C1 (centres undefined)	-4.5
Cc1ccc(C(N)c2cccc(S(C)(=O)=O)c2)cc1 (centres undefined)	4.98
COc1ccccc1Oc1ncccc1CNC(=O)[C@H](N)CC(C)(C)C	-5.62
COCCN1C[C@@H](C)[C@@]2(COCCN(C(=O)c3ccoc3)C2)C1	1.95
Cn1nc(C2CCCN(Cc3ccc(F)c(F)c3)C2)c2nccnc21 (centres undefined)	27.1
Cn1c(C(N)=O)cc2c1CN(C(=O)C1CC(=O)N(C(C)(C)C)C1)CC2 (centres undefined)	-2.03
Cc1cc(N2CCC(NC(=O)CCc3cnn(C)c3)CC2)nc(C)n1	-4.77
CC(NC(=O)Nc1nncs1)C(=O)NC1CCCC1 (centres undefined)	-8.75
COCCN1CCc2ncc(CN(C)C)n2CC1	-0.491
Cc1cc(C[C@@H]2COC[C@@H]2NC(=O)CN2CCCCCC2)on1	-10.1
CCCC(=O)NCCc1nc2cc(-c3ccc(OC)cc3)ncn2n1	-8.47
CCc1cc(N2CCC(NCCc3ccccc3F)CC2)nc(C)n1	5.19
COCCN1CCC2(CC1)CC(CC(N)=O)c1ccc(F)cc12 (centres undefined)	1.63
O=C(N[C@@H]1CN(Cc2cccs2)[C@@H]2CCCO[C@@H]21)c1cscn1	-9.16
CCC(C#N)NC(=O)COC1CCCCC1 (centres undefined)	-13.3
Cc1nnc2n1CCN(C(=O)c1cc(Br)c(Cl)[nH]1)C2	-1.01

Structure (SMILES)	cytotoxicity at 70.5 h [%]
OCCc1cc(CC2(NCc3ccc(C(F)(F)F)cc3)COC2)no1	-6.19
O=C(c1scc2c1OCCO2)N1CCOC(Cc2cccc(F)c2)C1 (centres undefined)	-5.83
CSc1nccc(N2CCN(C)C3(CCC(=O)N(CC4CC4)CC3)C2)n1 (centres undefined)	1.61
O=C(c1cnccn1)N1CCN(Cc2cscn2)CC1	31.3
CC(C)N1CCC2(CCN(C(=O)c3cccnc3)CC2)C1	-16.3
Cc1nnc(NC(=O)CN2CCCC(c3ccn[nH]3)C2)s1 (centres undefined)	18.6
NC(=O)CC1CCN(C(=O)CCOc2ccc(Cl)cc2)CC1	-1.2
CC(=O)N1CCN(C(=O)c2sc(-c3ccccc3F)nc2C)CC1	16.5
CN(CCOc1cccc(Cl)c1)Cc1nnc(C(C)(C)C)o1	-2.27
COc1ccc(CNCc2c(C)nc3sc(C)cn23)c(OC)c1OC	11.7
CCOc1ccc(-n2nnc(C(=O)O)c2-c2ccccn2)cc1	-11.9
O=C(C1CCCO1)N1C[C@@H]2CCN(c3cnccn3)C[C@@H]2C1 (some centres undefined)	-9.71
N#Cc1c(Cl)nsc1N1CCN(CC2CCCCC2)CC1	0.793
c1coc(CNc2ncc3c(n2)C2(CCNC2)COC3)c1 (centres undefined)	-4.32
CC(C(=O)O)n1nc(C(F)(F)F)c(Br)c1C1CC1 (centres undefined)	-14
CCn1cc(C(=O)Nc2ccc(C)cc2C(=O)NC)cn1	-3.07
O=C(Cn1cc(Cl)cn1)NCCN1CCC(O)(c2ccc(F)cc2)CC1	5.27
COc1ccccc1C(=O)Nc1c(F)c(C(=O)N2CCCC2)nn1C	-0.747
CC(=O)N1CCC(N[C@@H]2CC[C@@H]2NS(=O)(=O)c2cccnc2)CC1	2.57
CCc1nnc2n1CCN(CC(O)c1ccc3c(c1)OCCO3)C2 (centres undefined)	23.6
COc1ccc(F)c(-c2ccnc(N)c2)c1	-14.3
O=C(NCc1cc(-c2ccccc2)no1)NCC1CCCO1 (centres undefined)	-0.266
COc1ncccc1C(=O)NC1(c2cccc(F)c2)CCOCC1	22.6

Structure (SMILES)	cytotoxicity at 70.5 h [%]
CN(Cc1ccccc1)CC(O)Cn1cnc2cc(F)ccc2c1=O (centres undefined)	-7.28
Cc1ccc(N2CCCC(N3CCC(CO)CC3)C2=O)cc1 (centres undefined)	12.9
Cc1csc(C2(NCCC(=O)N3CCOCC3)CCCC2)n1	4.83
Cc1cc(C(=O)Nc2ccn(CCCN3CCCC3)n2)c(C)o1	-0.537
Cn1cccc1C(=O)N1CCC2(CC1)CN(S(C)(=O)=O)c1ccccc12	3.63
O=C(CN1CC(c2nc(-c3ccco3)no2)C1)NCc1ccc(F)cc1	0.546
Cc1nnc(N2CCCC3(CN(Cc4ccncc4)CCO3)C2)o1 (centres undefined)	-2.14
CCn1c(C2CCCN2Cc2noc(C(C)(C)C)n2)nc2ccccc21 (centres undefined)	-26.2
CCc1ccc(CN(C)C(=O)c2ccc(CSc3nnc[nH]3)o2)nc1	-11.2
Cc1nc(C)n(CC2CCCN(Cc3cccnc3)C2)n1 (centres undefined)	-0.814
N#CCSCCCN1CCN(C(=O)c2cccc(Cl)c2)CC1	2.68
CC(C)n1nnnc1-c1ccc(NC(=O)N(C)CCN(C)C)cc1F	-7.88
CN1CCCc2cc(CNC(=O)c3ccc(NC4CC4)nc3)ccc21	-3.79
CC(C)c1noc(C(C)N2CCN(Cc3cccnc3)CC2)n1 (centres undefined)	-5.62
CN(C)c1cccc(C(=O)Nc2cnn(Cc3ccccn3)c2)c1	-9.4
CN1C(=O)COc2cc(NC(=O)CCc3nc4cccnc4[nH]3)ccc21	-11.3
CC(C)CN1CC(c2nc(-c3cccc(F)c3)c[nH]2)CC1=O (centres undefined)	-7.31
Cc1cnn(CCC(=O)N2CCCC(c3nc(C)c(C)s3)C2)c1 (centres undefined)	1.92
O=c1c(-c2ccnc(NC3CCOCC3)n2)cnc2sc(Cl)cn12	1.36
COC(=O)NCCC(=O)NCC1(c2cccc(Cl)c2)CC1	-6.53
COCC(=O)N1CCCCC1c1nc(N(C)C)ncc1-c1cc(C)no1 (centres undefined)	21.1
CN(CC1CC1)C(=O)CN(Cc1cccc(O)c1)C1CCC(O)CC1 (centres undefined)	-6.77
